How the values were obtained:
[1] = thermogravimetric method, nitrogen flow, 5° C./min heating rate
Method: Thermogravimetric analysis was performed as follows: A sample of the material (ca. 4-5 mg) was heated in a platinum vessel using slow inert gas (nitrogen) flow with 5° C./min heating rate using Derivatograph C instrument.
Thermal stability data on the product of Example 1 were obtained by the thermogravimetric method described above.

[2] = biological target: T1, Rabbit muscle glycogen phosphorylase a (Oryctolagus cuniculus, UniProt P00489); test: Glycogen phosphorylase assay in vitro (reverse direction, malachite green phosphate detection); assay type: biochemical; settings: 50 mM Hepes pH 7.2, 7.5 mM glucose, 0.5 mM glucose-1-phosphate, 1 mg/mL glycogen, 30° C. for 30 min
T1 construct: purchased Sigma P1261; host or cells: rabbit muscle
T1 sequence (P00489 2-843 limits assumed): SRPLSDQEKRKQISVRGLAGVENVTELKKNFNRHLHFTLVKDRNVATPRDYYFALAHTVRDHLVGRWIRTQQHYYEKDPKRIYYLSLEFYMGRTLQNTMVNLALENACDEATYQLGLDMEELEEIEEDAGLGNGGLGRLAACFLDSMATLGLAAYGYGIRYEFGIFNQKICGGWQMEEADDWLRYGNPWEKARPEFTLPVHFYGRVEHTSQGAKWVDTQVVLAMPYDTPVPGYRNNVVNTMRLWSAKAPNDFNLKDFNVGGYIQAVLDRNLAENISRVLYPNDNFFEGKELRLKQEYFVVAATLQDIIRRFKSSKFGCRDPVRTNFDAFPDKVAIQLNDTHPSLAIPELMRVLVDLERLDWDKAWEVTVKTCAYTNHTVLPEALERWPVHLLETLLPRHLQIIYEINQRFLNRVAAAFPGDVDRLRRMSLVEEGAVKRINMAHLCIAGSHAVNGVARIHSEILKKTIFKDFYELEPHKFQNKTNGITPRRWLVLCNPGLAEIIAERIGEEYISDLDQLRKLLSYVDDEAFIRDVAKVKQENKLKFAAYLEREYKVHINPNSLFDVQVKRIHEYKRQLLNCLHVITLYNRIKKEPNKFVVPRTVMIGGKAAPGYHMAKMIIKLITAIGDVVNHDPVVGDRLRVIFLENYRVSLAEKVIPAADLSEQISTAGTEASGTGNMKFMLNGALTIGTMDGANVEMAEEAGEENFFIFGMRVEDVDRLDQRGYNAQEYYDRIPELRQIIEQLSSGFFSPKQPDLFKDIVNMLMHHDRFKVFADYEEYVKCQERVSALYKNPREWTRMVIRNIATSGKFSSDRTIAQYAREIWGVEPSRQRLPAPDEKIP
Excerpt: α-D-Glucose-1-phosphate (disodium salt), Glycogen, D-Glucose, Malachite Green Hydrochloride, Ammonium Molybdate tetrahydrate, BSA, HEPES and rabbit muscle phosphorylase a (P1261) were purchased from Sigma. All other reagents were analytical grade.
An assay for glycogen phosphorylase activity in the reverse direction was developed based on the method described by Engers et al., Can. J. Biochem., 1970, 48, 746-754]. Rabbit muscle glycogen phosphorylase a (Sigma) was reconstituted at a stock concentration of 100 μg/mL in 25 mM Tris/HCl. […] in a 96-well plate in a final volume of 100 μL containing 50 mM Hepes pH 7.2, 7.5 mM glucose, 0.5 mM glucose-1-phosphate and 1 mg/mL glycogen. After incubation at 30° C. for 30 min, the inorganic phosphate released from glucose-1-phosphate was measured by the addition of 150 μL of malachite green/molybdate solution prepared as follows: 5 mL of 4.2% ammonium molybdate in 4N HCl, 15 mL of 0.045% malachite green, 50 μL of Tween 20. Following a 30 min incubation at room temperature, the absorbance was measured at 620 nm. For IC50 determination, 10 μL of a serial dilution of compound (100 μM to 0.004 μM) in DMSO was added to each reaction in duplicate with the equivalent concentration of DMSO added to the control uninhibited reaction. Dose response curves were then obtained by plotting % inhibition versus log10 compound concentration. […]

**Q.** With `Cl.O=C(N[C@@H](Cc1ccc(F)cc1)C(=O)N1CCC(O)CC1)c1cc2cc(Cl)ncc2[nH]1` [Example 1] as the compound, how does the “Thermal stability (temperature below which the substance appeared to be stable)” value [1] read?
**A.** below 190 °C

**Q.** For `O=C(N[C@@H](Cc1ccc(F)cc1)C(=O)N1CCC(O)CC1)c1cc2cc(Cl)ncc2[nH]1` [Formula (I), 5-chloro-1H-pyrrolo[2,3-c]pyridine-2-carboxylic acid [1-(S)-(4-fluorobenzyl)-2-(4-hydroxypiperidin-1-yl)-2-oxoethyl]amide], which IC50 [2] is on record?
**A.** < 1000 µM

From patent US8664397B2, “Pyrrolopyridine-2-carboxylic acid amide derivative useful as inhibitor of glycogen phosphorylase” (Prosidion Limited, priority 2004, dated 2014)
